Data from ChEMBL document CHEMBL6103630, “Discovery of Novel 2,4,5-Trisubstituted Pyrimidine Derivatives as Potent and Selective FGFR Inhibitors against Gatekeeper Mutants for the Treatment of NSCLC” (J Med Chem, 2025).
Activity calls are given as the source filed them. The rule behind the calls is not given here.

Experiments:
NCI-H1581 [1] = assay: cells; details: Homo sapiens, NCI-H1581, 48 h
Description: Antiproliferative activity against human NCI-H1581 cells assessed as inhibition of cell proliferation incubated for 48 hrs by MTT assay

NCI-H1581 [2] = assay: Antitumor activity against human NCI-H1581 cells xenografted in BALB/c nude mouse assessed as tumor growth inhibition at 60 mg/kg relative to control; type: functional; details: read-out: TGI
A549 = assay: cells; details: Homo sapiens, A549, 48 h
Description: Antiproliferative activity against human A549 cells assessed as inhibition of cell proliferation incubated for 48 hrs by MTT assay

[3] = target: Fibroblast growth factor receptor 1 (Homo sapiens) (UniProt P11362); details: dose 1000.0 nM
Fibroblast growth factor receptor 1 (Homo sapiens), sequence (P11362 22-822 limits assumed): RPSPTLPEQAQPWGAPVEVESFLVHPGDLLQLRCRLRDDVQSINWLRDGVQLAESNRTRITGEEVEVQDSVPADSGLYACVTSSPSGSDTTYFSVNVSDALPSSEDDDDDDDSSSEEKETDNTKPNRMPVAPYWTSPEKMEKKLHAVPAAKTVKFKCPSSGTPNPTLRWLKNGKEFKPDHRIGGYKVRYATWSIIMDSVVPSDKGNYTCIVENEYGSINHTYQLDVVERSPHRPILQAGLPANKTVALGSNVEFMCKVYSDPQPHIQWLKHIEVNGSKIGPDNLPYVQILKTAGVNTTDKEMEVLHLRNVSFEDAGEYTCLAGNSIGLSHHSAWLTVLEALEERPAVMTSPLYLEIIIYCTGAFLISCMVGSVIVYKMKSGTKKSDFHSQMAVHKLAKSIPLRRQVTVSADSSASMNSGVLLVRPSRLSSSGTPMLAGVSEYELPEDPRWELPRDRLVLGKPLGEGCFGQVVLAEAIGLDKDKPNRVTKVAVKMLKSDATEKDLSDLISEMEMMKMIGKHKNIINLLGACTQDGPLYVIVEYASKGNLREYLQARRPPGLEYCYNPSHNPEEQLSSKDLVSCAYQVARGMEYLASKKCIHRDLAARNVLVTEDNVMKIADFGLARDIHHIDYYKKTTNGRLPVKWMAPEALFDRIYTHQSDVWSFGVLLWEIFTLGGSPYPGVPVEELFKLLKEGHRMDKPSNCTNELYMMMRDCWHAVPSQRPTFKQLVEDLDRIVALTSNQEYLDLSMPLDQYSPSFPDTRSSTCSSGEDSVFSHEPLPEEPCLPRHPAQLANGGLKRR
Description: Inhibition of FGFR1 (unknown origin) at 1000 nM by caliper mobility shift assay relative to control

[4] = target: Fibroblast growth factor receptor 1 (Homo sapiens) (UniProt P11362); assay: Reversible inhibition of FGFR1 (unknown origin) phosphorylation in human NCI-H1581 cells at 1 uM preincubated with compound for 2 hrs followed by compound washout and measured after 0.5 hrs by Western blotting analysis; type: cell-based

| IC50 (NCI-H1581 [1]) [nM] | IC50 (A549) [nM] | inhibition [3] [%] | inhibition [4] | Structure (SMILES) | inhibition in vivo at 60 mg/kg (NCI-H1581 [2]) [%] |
| --- | --- | --- | --- | --- | --- |
| 130 | 4150 |  |  | C=CC(=O)Nc1ccc(Nc2nc(Nc3ccc(N4CCN(C)CC4)c(F)c3)ncc2Cl)cc1Cl |  |
| 170 | 9030 |  |  | C=CC(=O)Nc1ccc(Nc2nc(Nc3ccc(N4CCN(CC)CC4)c(OC)c3)ncc2Cl)cc1Cl |  |
|  |  | 94.9 |  | C=CC(=O)Nc1ccccc1Nc1nc(Nc2ccc(N3CCN(C)CC3)cc2)ncc1Cl |  |
| 210 | 1180 |  |  | C=CC(=O)Nc1ccc(Nc2nc(Nc3ccc(N4C[C@@H](C)N[C@@H](C)C4)cc3)ncc2Cl)cc1Cl |  |
| 120 | 12100 |  |  | C=CC(=O)Nc1ccc(Nc2nc(Nc3ccc(N4CCC(N(C)C)CC4)c(OC)c3)ncc2Cl)cc1Cl |  |
| 470 | 3180 |  |  | C=CC(=O)Nc1ccc(Nc2nc(Nc3ccc(N4CCN(C)CC4)nc3)ncc2Cl)cc1Cl |  |
|  |  |  | inactive | Cc1ccc(C(=O)Nc2ccc(CN3CCN(C)CC3)c(C(F)(F)F)c2)cc1C#Cc1cnc2cccnn12 |  |

| Structure (SMILES) | IC50 (NCI-H1581 [1]) [nM] | IC50 (A549) [nM] | inhibition [3] [%] | inhibition [4] | inhibition in vivo at 60 mg/kg (NCI-H1581 [2]) [%] |
| --- | --- | --- | --- | --- | --- |
| C=CC(=O)N1CC[C@H](n2nc(C#Cc3cc(OC)cc(OC)c3)c3c(N)ncnc32)C1 [FUTIBATINIB] | 5 | > 20000 |  |  | 54 |
